Assays:
Assay in all cases: relative viability (nuclei count vs DMSO), 5 days (fraction); higher = more cells survive
BI-2536 + Foretinib = compound: CC[C@@H]1C(=O)N(C)c2cnc(Nc3ccc(C(=O)NC4CCN(C)CC4)cc3OC)nc2N1C1CCCC1 [BI-2536] + COc1cc2c(Oc3ccc(NC(=O)C4(C(=O)Nc5ccc(F)cc5)CC4)cc3F)ccnc2cc1OCCCN1CCOCC1 [Foretinib] (partner 0.25 µM)
Outline: (§1)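 Lung cancer cell lines, seeded in 1536-well plates, were treated the following day by pin tool with a single drug or with five library-drug doses (not always all listed) in √10 steps on top of a fixed anchor-drug dose. Cells were fixed and nuclei stained in one step after 5 days, and nuclei were counted. Relative viability is the nuclei count for treated wells divided by that for vehicle wells, reported as medians of duplicate plates.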

BI-2536 + Phenformin = compound: CC[C@@H]1C(=O)N(C)c2cnc(Nc3ccc(C(=O)NC4CCN(C)CC4)cc3OC)nc2N1C1CCCC1 [BI-2536] + N=C(N)NC(=N)NCCc1ccccc1 [Phenformin] (partner 250 µM)
Outline: as §1

[1] = compound: CC1CC(=O)N(C2=CN=C(N=C2N1C3CCCC3)NC4=C(C=C(C=C4)C(=O)NC5CCN(CC5)C)OC)C [NPK76-II-72-1] + Cc1nc(Nc2ncc(C(=O)Nc3c(C)cccc3Cl)s2)cc(N2CCN(CCO)CC2)n1 [Dasatinib] (partner 0.075 µM)
Outline: as §1

[2] = compound: CC1CC(=O)N(C2=CN=C(N=C2N1C3CCCC3)NC4=C(C=C(C=C4)C(=O)NC5CCN(CC5)C)OC)C [NPK76-II-72-1] + Cc1nc(NC(=O)N2CCC[C@H]2C(N)=O)sc1-c1ccnc(C(C)(C)C(F)(F)F)c1 [Alpelisib] (partner 2 µM)
Outline: as §1

Cell Line | relative viability (BI-2536 + Foretinib; first compound 0.01 µM) | relative viability (BI-2536 + Foretinib; first compound 0.03162 µM) | relative viability (BI-2536 + Foretinib; first compound 0.1 µM) | relative viability (BI-2536 + Foretinib; first compound 0.3162 µM) | relative viability (BI-2536 + Foretinib; first compound 1 µM) | relative viability (BI-2536 + Phenformin; first compound 0.01 µM) | relative viability (BI-2536 + Phenformin; first compound 0.03162 µM) | relative viability (BI-2536 + Phenformin; first compound 0.1 µM) | relative viability (BI-2536 + Phenformin; first compound 0.3162 µM) | relative viability (BI-2536 + Phenformin; first compound 1 µM) | relative viability ([1]; first compound 0.01 µM) | relative viability ([1]; first compound 0.03162 µM) | relative viability ([1]; first compound 0.1 µM) | relative viability ([1]; first compound 0.3162 µM) | relative viability ([1]; first compound 1 µM) | relative viability ([2]; first compound 0.01 µM) | relative viability ([2]; first compound 0.03162 µM) | relative viability ([2]; first compound 0.1 µM) | relative viability ([2]; first compound 0.3162 µM) | relative viability ([2]; first compound 1 µM)
LU99A | 0.716 | 0.812 | 0.329 | 0.222 | 0.175 | 0.816 | 0.823 | 0.212 | 0.197 | 0.2 | 0.404 | 0.505 | 0.51 | 0.442 | 0.674 | 0.462 | 0.578 | 0.576 | 0.48 | 0.563
LXF-289 | 1.03 | 0.826 | 0.613 | 0.0393 | 0.0552 | 0.467 | 0.488 | 0.159 | 0.0389 | 0.039 | 0.211 | 0.199 | 0.199 | 0.218 | 0.238 | 0.987 | 1.07 | 1.05 | 1.01 | 1.05
NCI-H23 | 0.954 | 0.813 | 0.229 | 0.153 | 0.162 | 0.769 | 0.781 | 0.415 | 0.115 | 0.122 | 0.752 | 0.771 | 0.565 | 0.859 | 0.776 | 0.759 | 0.871 | – | 0.657 | 0.804
NCI-H322M | 0.98 | 0.842 | 0.834 | 0.389 | 0.319 | 0.76 | 0.725 | 0.497 | 0.341 | 0.251 | 0.268 | 0.241 | 0.249 | 0.234 | 0.256 | 0.781 | 0.73 | 0.766 | 0.922 | 0.818
NCI-H358 | 0.623 | 0.598 | 0.08 | 0.101 | 0.0984 | 0.363 | 0.172 | 0.0663 | 0.0665 | 0.072 | 0.162 | 0.14 | 0.156 | – | 0.149 | 0.876 | 0.827 | 0.884 | 0.508 | 1.01
NCI-H441 | 0.918 | 0.673 | 0.261 | 0.194 | 0.222 | 0.805 | 0.492 | 0.23 | 0.217 | 0.228 | 0.565 | 0.709 | 0.452 | 0.541 | 0.727 | 0.536 | 0.648 | 0.866 | 0.767 | 0.901
NCI-H460 | 1.11 | 1.06 | 0.147 | 0.0166 | 0.02 | 0.524 | 0.409 | 0.0506 | 0.0146 | 0.0134 | 0.512 | 0.543 | 0.497 | 0.458 | 0.501 | 0.469 | 0.541 | 0.478 | 0.442 | 0.497
NCI-H520 | 0.678 | 0.632 | 0.242 | 0.184 | 0.218 | 0.572 | 0.408 | 0.218 | 0.255 | 0.281 | 0.203 | 0.172 | 0.178 | 0.187 | 0.252 | 0.918 | 1.03 | 0.909 | 0.859 | 0.829
NCI-H596 | 0.642 | 0.955 | 0.803 | 0.292 | 0.205 | 0.729 | 0.737 | 0.917 | 0.358 | 0.245 | 0.544 | 0.668 | 0.551 | 0.591 | 0.557 | 0.523 | 0.448 | 0.405 | 0.479 | 0.498
NCI-H647 | 1.35 | 1.16 | 0.649 | 0.101 | 0.128 | 0.423 | 0.349 | 0.107 | 0.059 | 0.0765 | 0.215 | 0.212 | 0.131 | 0.146 | 0.169 | 0.985 | 1.28 | – | 1.02 | 1.18
NCI-H650 | 0.981 | 0.952 | 0.678 | 0.207 | 0.155 | 0.462 | 0.438 | 0.163 | 0.154 | 0.14 | 0.457 | 0.455 | 0.411 | 0.423 | 0.494 | 1.15 | 1.23 | 0.952 | – | 1.13
NCI-H661 | 1.13 | 0.889 | 0.388 | 0.296 | 0.309 | 0.263 | 0.224 | 0.216 | 0.198 | 0.206 | 0.825 | 0.914 | 0.94 | 0.729 | 1.12 | 0.609 | 0.665 | 0.886 | 0.451 | 0.797
NCI-H727 | 0.818 | 0.888 | 0.711 | 0.515 | 0.371 | 0.529 | 0.527 | 0.386 | 0.319 | 0.313 | 0.327 | 0.298 | 0.316 | 0.397 | 0.409 | 0.476 | 0.516 | 0.626 | 0.543 | 0.713
NCI-H838 | 0.953 | 1.06 | 0.636 | 0.145 | 0.134 | 0.571 | 0.329 | 0.116 | 0.116 | 0.105 | 0.28 | 0.247 | 0.253 | 0.265 | 0.292 | 0.974 | 0.942 | 0.972 | 0.948 | 1.02
NCI-H1355 | 0.871 | 0.968 | 0.601 | 0.149 | 0.18 | 0.427 | 0.408 | 0.219 | 0.193 | 0.196 | 0.689 | 0.627 | 0.744 | 0.617 | 0.731 | 0.834 | 0.827 | 0.544 | 0.755 | 0.849
NCI-H1395 | 0.911 | 1.1 | 0.691 | 0.339 | 0.327 | 0.439 | 0.444 | 0.293 | 0.279 | 0.316 | 0.433 | 0.36 | 0.424 | 0.417 | 0.369 | 1.02 | 0.994 | 0.979 | 1.17 | 1.03
